Experimental data: patent EP4692083A1, “NOVEL AZABICYCLE DERIVATIVES AND PHARMACEUTICAL COMPOSITION FOR INHIBITING AUTOTAXIN, COMPRISING SAME” (Nextgen Bioscience Co., Ltd., priority 2023, dated 2024)

Biological target: human Autotaxin protein (Homo sapiens, UniProt Q13822)
Assay: Evaluation of the inhibitory activity against human Autotaxin protein (18:1 LysoPC substrate, choline assay kit, absorbance at 570 nm)
Assay type: biochemical
Details: at 500nM compound, 2 hours at 37 °C, read-out: Inhibition rate (%, at 500nM)
Protocol: Solutions of each synthesized compound (80 uM, 100% dimethyl sulfoxide) were sequentially diluted 5-fold with dimethyl sulfoxide to prepare 6 concentrations. Each concentration of the compound was diluted 2-fold with 1x test buffer (50 mM Tris-Cl (pH 8.0), 5 mM KCl, 1 mM CaCl2, 1 mM MgCl2, 140 mM NaCl, deionized water, 1 mg/mL BSA), and 1 uL (1.25% dimethylsulfoxide) of the diluted mixture was dispensed into each well of a 96-well clear round-bottom plate. 9 uL of 1x test buffer was added, and 20 uL of 240 nM human autotaxin protein (buffer: 50 mM Tris-HCl, pH 8.0, with 150 mM sodium chloride and 20% glycerol) was added. 10 uL of sonicated 360 uM 18:1 LysoPC (diluted with 1x assay buffer) was added. The reaction was performed for 2 hours in a shaking incubator at 37 °C, and a secondary reaction mixture (choline assay kit, KA1662) (65 uL of 1x assay buffer: 1 uL of choline oxidase: 1 uL of dye probe) was prepared. 60 uL of the secondary reaction mixture was added to the plate where the reaction was performed, and incubated for 30 minutes in a shaker. The absorbance value was measured at a wavelength of 570 nm using a SpectraMax iD3 microplate reader. The percentage inhibition activity value (% inhibition) was calculated by the formula: (1 - absorbance value test group / absorbance value control group) X 100.

Structure (SMILES)	inhibition at 0.5 µM [%]
c1ccc(CNc2ncc(-c3nnc(N4C[C@@H]5[C@H](C4)[C@H]5c4cnn[nH]4)o3)cn2)cc1 [Example 1, 5-(5-((1R,5S,6r)-6-(1H-1,2,3-Triazol-5-yl)-3-azabicyclo[3.1.0]hexan-3-yl)-1,3,4-oxadiazol-2-yl)-N-benzylpyrimidin-2-amine]	63.6
Clc1cccc(CNc2ncc(-c3nnc(N4C[C@@H]5[C@H](C4)[C@H]5c4cnn[nH]4)o3)cn2)c1 [Example 2, 5-(5-((1R,5S,6r)-6-(1H-1,2,3-Triazol-5-yl)-3-azabicyclo[3.1.0]hexan-3-yl)-1,3,4-oxadiazol-2-yl)-N-(3-chlorobenzyl)pyrimidin-2-amine]	88.5
Clc1ccc(CNc2ncc(-c3nnc(N4C[C@@H]5[C@H](C4)[C@H]5c4cnn[nH]4)o3)cn2)cc1 [Example 3, 5-(5-((1R,5S,6r)-6-(1H-1,2,3-Triazol-5-yl)-3-azabicyclo[3.1.0]hexan-3-yl)-1,3,4-oxadiazol-2-yl)-N-(4-chlorobenzyl)pyrimidin-2-amine]	73.1
Fc1ccc(CNc2ncc(-c3nnc(N4C[C@@H]5[C@H](C4)[C@H]5c4cnn[nH]4)o3)cn2)cc1F [Example 4, 5-(5-((1R,5S,6r)-6-(1H-1,2,3-Triazol-5-yl)-3-azabicyclo[3.1.0]hexan-3-yl)-1,3,4-oxadiazol-2-yl)-N-(3,4-difluorobenzyl)pyrimidin-2-amine]	81.5
Fc1cc(F)cc(CNc2ncc(-c3nnc(N4C[C@@H]5[C@H](C4)[C@H]5c4cnn[nH]4)o3)cn2)c1 [Example 5, 5-(5-((1R,5S,6r)-6-(1H-1,2,3-Triazol-5-yl)-3-azabicyclo[3.1.0]hexan-3-yl)-1,3,4-oxadiazol-2-yl)-N-(3,5-difluorobenzyl)pyrimidin-2-amine]	86.4
Clc1ccc(CNc2ncc(-c3nnc(N4C[C@@H]5[C@H](C4)[C@H]5c4cnn[nH]4)o3)cn2)cc1Cl [Example 6, 5-(5-((1R,5S,6r)-6-(1H-1,2,3-Triazol-5-yl)-3-azabicyclo[3.1.0]hexan-3-yl)-1,3,4-oxadiazol-2-yl)-N-(3,4-dichlorobenzyl)pyrimidin-2-amine]	68.9
Clc1cc(Cl)cc(CNc2ncc(-c3nnc(N4C[C@@H]5[C@H](C4)[C@H]5c4cnn[nH]4)o3)cn2)c1 [Example 7, 5-(5-((1R,5S,6r)-6-(1H-1,2,3-Triazol-5-yl)-3-azabicyclo[3.1.0]hexan-3-yl)-1,3,4-oxadiazol-2-yl)-N-(3,5-dichlorobenzyl)pyrimidin-2-amine]	92
Brc1cc(Br)cc(CNc2ncc(-c3nnc(N4C[C@@H]5[C@H](C4)[C@H]5c4cnn[nH]4)o3)cn2)c1 [Example 8, 5-(5-((1R,5S,6r)-6-(1H-1,2,3-Triazol-5-yl)-3-azabicyclo[3.1.0]hexan-3-yl)-1,3,4-oxadiazol-2-yl)-N-(3,5-dibromobenzyl)pyrimidin-2-amine]	97.3
c1cc2c(cc1CNc1ncc(-c3nnc(N4C[C@@H]5[C@H](C4)[C@H]5c4cnn[nH]4)o3)cn1)OCO2 [Example 9, 5-(5-((1R,5S,6r)-6-(1H-1,2,3-Triazol-5-yl)-3-azabicyclo[3.1.0]hexan-3-yl)-1,3,4-oxadiazol-2-yl)-N-(benzo[d][1,3]dioxol-5-ylmethyl)pyrimidin-2-amine]	40.6
FC(F)(F)c1cc(CNc2ncc(-c3nnc(N4C[C@@H]5[C@H](C4)[C@H]5c4cnn[nH]4)o3)cn2)cc(C(F)(F)F)c1 [Example 10, 5-(5-((1R,5S,6r)-6-(1H-1,2,3-Triazol-5-yl)-3-azabicyclo[3.1.0]hexan-3-yl)-1,3,4-oxadiazol-2-yl)-N-(3,5-bis(trifluoromethyl)benzyl)pyrimidin-2-amine]	91.6
c1ccc(CCNc2ncc(-c3nnc(N4C[C@@H]5[C@H](C4)[C@H]5c4cnn[nH]4)o3)cn2)cc1 [Example 11, 5-(5-((1R,5S,6r)-6-(1H-1,2,3-Triazol-5-yl)-3-azabicyclo[3.1.0]hexan-3-yl)-1,3,4-oxadiazol-2-yl)-N-phenethylpyrimidin-2-amine]	85.3
Fc1cccc(CCNc2ncc(-c3nnc(N4C[C@@H]5[C@H](C4)[C@H]5c4cnn[nH]4)o3)cn2)c1 [Example 12, 5-(5-((1R,5S,6r)-6-(1H-1,2,3-Triazol-5-yl)-3-azabicyclo[3.1.0]hexan-3-yl)-1,3,4-oxadiazol-2-yl)-N-(3-fluorophenethyl)pyrimidin-2-amine]	82.9
Fc1ccc(CCNc2ncc(-c3nnc(N4C[C@@H]5[C@H](C4)[C@H]5c4cnn[nH]4)o3)cn2)cc1 [Example 13, 5-(5-((1R,5S,6r)-6-(1H-1,2,3-Triazol-5-yl)-3-azabicyclo[3.1.0]hexan-3-yl)-1,3,4-oxadiazol-2-yl)-N-(4-fluorophenethyl)pyrimidin-2-amine]	86
Clc1cccc(CCNc2ncc(-c3nnc(N4C[C@@H]5[C@H](C4)[C@H]5c4cnn[nH]4)o3)cn2)c1 [Example 14, 5-(5-((1R,5S,6r)-6-(1H-1,2,3-Triazol-5-yl)-3-azabicyclo[3.1.0]hexan-3-yl)-1,3,4-oxadiazol-2-yl)-N-(3-chlorophenethyl)pyrimidin-2-amine]	85.3
Clc1ccc(CCNc2ncc(-c3nnc(N4C[C@@H]5[C@H](C4)[C@H]5c4cnn[nH]4)o3)cn2)cc1 [Example 15, 5-(5-((1R,5S,6r)-6-(1H-1,2,3-Triazol-5-yl)-3-azabicyclo[3.1.0]hexan-3-yl)-1,3,4-oxadiazol-2-yl)-N-(4-chlorophenethyl)pyrimidin-2-amine]	94.5
c1ccc2c(c1)CC(Nc1ncc(-c3nnc(N4C[C@@H]5[C@H](C4)[C@H]5c4cnn[nH]4)o3)cn1)C2 [Example 16, 5-(5-((1R,5S,6r)-6-(1H-1,2,3-Triazol-5-yl)-3-azabicyclo[3.1.0]hexan-3-yl)-1,3,4-oxadiazol-2-yl)-N-(2,3-dihydro-1H-inden-2-yl)pyrimidin-2-amine]	98.6
Fc1cc2c(cc1F)CC(Nc1ncc(-c3nnc(N4C[C@@H]5[C@H](C4)[C@H]5c4cnn[nH]4)o3)cn1)C2 [Example 17, 5-(5-((1R,5S,6r)-6-(1H-1,2,3-Triazol-5-yl)-3-azabicyclo[3.1.0]hexan-3-yl)-1,3,4-oxadiazol-2-yl)-N-(5,6-difluoro-2,3-dihydro-1H-inden-2-yl)pyrimidin-2-amine]	96.7
Brc1ccc2c(c1)CC(Nc1ncc(-c3nnc(N4C[C@@H]5[C@H](C4)[C@H]5c4cnn[nH]4)o3)cn1)C2 (stereo partly drawn) [Example 18, 5-(5-((1R,5S,6r)-6-(1H-1,2,3-Triazol-5-yl)-3-azabicyclo[3.1.0]hexan-3-yl)-1,3,4-oxadiazol-2-yl)-N-(5-bromo-2,3-dihydro-1H-inden-2-yl)pyrimidin-2-amine]	87.6
O=C(CCc1cnc(NC2Cc3ccccc3C2)nc1)N1C[C@@H]2[C@H](C1)[C@H]2c1cnn[nH]1 [Example 19, 1-((1R,5S,6r)-6-(1H-1,2,3-Triazol-5-yl)-3-azabicyclo[3.1.0]hexan-3-yl)-3-(2-((2,3-dihydro-1H-inden-2-yl)amino)pyrimidin-5-yl)propan-1-one]	91.9
FC(F)(F)c1ccc(CNc2ncc(-c3nnc(N4C[C@@H]5[C@H](C4)[C@H]5c4cnn[nH]4)o3)cn2)cc1 [Example 20, 5-(5-((1R,5S,6r)-6-(1H-1,2,3-Triazol-5-yl)-3-azabicyclo[3.1.0]hexan-3-yl)-1,3,4-oxadiazol-2-yl)-N-(4-(trifluoromethyl)benzyl)pyrimidin-2-amine]	88.5
FC(F)(F)c1cccc(CNc2ncc(-c3nnc(N4C[C@@H]5[C@H](C4)[C@H]5c4cnn[nH]4)o3)cn2)c1 [Example 21, 5-(5-((1R,5S,6r)-6-(1H-1,2,3-Triazol-5-yl)-3-azabicyclo[3.1.0]hexan-3-yl)-1,3,4-oxadiazol-2-yl)-N-(3-(trifluoromethyl)benzyl)pyrimidin-2-amine]	97.6
FC(F)(F)c1ccccc1CNc1ncc(-c2nnc(N3C[C@@H]4[C@H](C3)[C@H]4c3cnn[nH]3)o2)cn1 [Example 22, 5-(5-((1R,5S,6r)-6-(1H-1,2,3-Triazol-5-yl)-3-azabicyclo[3.1.0]hexan-3-yl)-1,3,4-oxadiazol-2-yl)-N-(2-(trifluoromethyl)benzyl)pyrimidin-2-amine]	98.4
FC(F)c1ccc(CNc2ncc(-c3nnc(N4C[C@@H]5[C@H](C4)[C@H]5c4cnn[nH]4)o3)cn2)cc1 [Example 23, 5-(5-((1R,5S,6r)-6-(1H-1,2,3-Triazol-5-yl)-3-azabicyclo[3.1.0]hexan-3-yl)-1,3,4-oxadiazol-2-yl)-N-(4-(difluoromethyl)benzyl)pyrimidin-2-amine]	82.2
N#Cc1ccc(CNc2ncc(-c3nnc(N4C[C@@H]5[C@H](C4)[C@H]5c4cnn[nH]4)o3)cn2)cc1 [Example 24, 4-(((5-(5-((1R,5S,6r)-6-(1H-1,2,3-Triazol-5-yl)-3-azabicyclo[3.1.0]hexan-3-yl)-1,3,4-oxadiazol-2-yl)pyrimidin-2-yl)amino)methyl)benzonitrile]	66.3
N#Cc1cccc(CNc2ncc(-c3nnc(N4C[C@@H]5[C@H](C4)[C@H]5c4cnn[nH]4)o3)cn2)c1 [Example 25, 3-(((5-(5-((1R,5S,6r)-6-(1H-1,2,3-Triazol-5-yl)-3-azabicyclo[3.1.0]hexan-3-yl)-1,3,4-oxadiazol-2-yl)pyrimidin-2-yl)amino)methyl)benzonitrile]	95.2
